Measured values published in US8933018B2, “Boron containing polybasic bacterial efflux pump inhibitors and therapeutic uses thereof” (priority 2011, dated 2015).

Test system: P. aeruginosa, PAM1723, overexpressing the MexAB-OprM efflux pump
Format: cell-based, Pseudomonas aeruginosa
Settings: lowest EPI concentration giving antibacterial activity with levofloxacin at 1/8 of its MIC, MHB, 20 h at 35° C.
Protocol: All EPI compounds were readily soluble in water and stock solutions were prepared at a final concentration of 10 mg/ml. Stock solutions were further diluted, according to the needs of the particular assay, in Mueller Hinton Broth (MHB). Stock solution was stored at […].
The checkerboard assay was performed in microtiter plates. […] EPIs were diluted in the y-axis, each row containing a single concentration of an EPI. […] The assay was performed in MHB with a final bacterial inoculum of 5 times 10^5 CFU/ml (from an early-log phase culture). Microtiter plates were incubated during 20 h at 35° C. and were read using a microtiter plate reader (Molecular Devices) at 650 nm as well as visual observation using a microtiter plate-reading mirror.

| Structure (SMILES) | MPC8 (Minimum Potentiating Concentration) |
| --- | --- |
| CC1(C)OB(O)c2cc(NC(=O)[C@@H](CCc3ccc(C(F)(F)F)cc3)NC(=O)[C@@H](N)CCC(=O)N3C[C@@H](N)C[C@H]3CN)ccc21 [Compound 41, (S)-2-amino-5-((2S,4S)-4-amino-2-(aminomethyl)pyrrolidin-1-yl)-N-((R)-1-(1-hydroxy-3,3-dimethyl-1,3-dihydrobenzo[c][1,2]oxaborol-6-ylamino)-1-oxo-4-(4-(trifluoromethyl)phenyl)butan-2-yl)-5-oxopentanamide] | B (B = MPC8 of 2.5 μg/ml to less than 10 μg/mL.) |
| CC1(C)OB(O)c2cc(NC(=O)[C@@H](CCc3ccc(C(F)(F)F)cc3)NC(=O)[C@@H](N)CCC(=O)N3C4CCC3[C@H](CN)[C@@H]4CN)ccc21 [Compound 42, (2S)-2-amino-5-((2R,3S)-2,3-bis(aminomethyl)-7-azabicyclo[2.2.1]heptan-7-yl)-N-((R)-1-(1-hydroxy-3,3-dimethyl-1,3-dihydrobenzo[c][1,2]oxaborol-6-ylamino)-1-oxo-4-(4-(trifluoromethyl)phenyl)butan-2-yl)-5-oxopentanamide] | A (A = MPC8 of less than 2.5 μg/mL.) |
| NCCN(CCN)C(=O)CC[C@H](N)C(=O)N[C@H](Cc1ccc(C(F)(F)F)cc1)C(=O)Nc1cnc2ccc(B(O)O)cc2c1 [Compound 43, 3-((R)-2-((S)-2-amino-5-(bis(2-aminoethyl)amino)-5-oxopentanamido)-3-(4-(trifluoromethyl)phenyl)propanamido)quinolin-6-ylboronic acid] | B (B = MPC8 of 2.5 μg/ml to less than 10 μg/mL.) |
| NCCN(CCN)C(=O)CC[C@H](N)C(=O)N[C@H](CCc1ccc(C(F)(F)F)cc1)C(=O)Nc1cnc2ccc(B(O)O)cc2c1 [Compound 44, 3-((R)-2-((S)-2-amino-5-(bis(2-aminoethyl)amino)-5-oxopentanamido)-4-(4-(trifluoromethyl)phenyl)butanamido)quinolin-6-ylboronic acid] | A (A = MPC8 of less than 2.5 μg/mL.) |
| N[C@@H]1C[C@H](N)C[C@H](NC(=O)CC[C@H](N)C(=O)N[C@H](CCc2ccc(C(F)(F)F)cc2)C(=O)Nc2ccc3c(c2)B(O)OC3)C1 [Compound 66, (S)-2-amino-N^5-((1s,3R,5S)-3,5-diaminocyclohexyl)-N^1-((R)-1-(1-hydroxy-1,3-dihydrobenzo[c][1,2]oxaborol-6-ylamino)-1-oxo-4-(4-(trifluoromethyl)phenyl)butan-2-yl)pentanediamide] | B (B = MPC8 of 2.5 μg/ml to less than 10 μg/mL.) |
| CC1(C)OB(O)c2cc(NC(=O)[C@@H](Cc3ccc(C(F)(F)F)cc3)NC(=O)[C@@H](N)CCC(=O)N3C[C@H](N)C[C@H](N)C3)ccc21 [Compound 67, (S)-2-amino-5-((3R,5S)-3,5-diaminopiperidin-1-yl)-N-((R)-1-(1-hydroxy-3,3-dimethyl-1,3-dihydrobenzo[c][1,2]oxaborol-6-ylamino)-1-oxo-3-(4-(trifluoromethyl)phenyl)propan-2-yl)-5-oxopentanamide] | B (B = MPC8 of 2.5 μg/ml to less than 10 μg/mL.) |
| CC1(C)OB(O)c2cc(NC(=O)[C@@H](Cc3ccc(C(F)(F)F)cc3)NC(=O)[C@@H](N)CCC(=O)N3C[C@@H](N)C[C@H](N)C3)ccc21 [Compound 74, (S)-2-amino-5-((3S,5S)-3,5-diaminopiperidin-1-yl)-N-((R)-1-(1-hydroxy-3,3-dimethyl-1,3-dihydrobenzo[c][1,2]oxaborol-6-ylamino)-1-oxo-3-(4-(trifluoromethyl)phenyl)propan-2-yl)-5-oxopentanamide] | B (B = MPC8 of 2.5 μg/ml to less than 10 μg/mL.) |
| CC1(C)OB(O)c2cc(NC(=O)[C@@H](Cc3ccc(C(F)(F)F)cc3)NC(=O)[C@@H](N)CCC(=O)N3C[C@@H](N)C[C@H]3CN)ccc21 [Compound 75, (S)-2-amino-5-((2S,4S)-4-amino-2-(aminomethyl)pyrrolidin-1-yl)-N-((R)-1-(1-hydroxy-3,3-dimethyl-1,3-dihydrobenzo[c][1,2]oxaborol-6-ylamino)-1-oxo-3-(4-(trifluoromethyl)phenyl)propan-2-yl)-5-oxopentanamide] | B (B = MPC8 of 2.5 μg/ml to less than 10 μg/mL.) |
| CC(C)c1ccc(C[C@@H](NC(=O)[C@@H](N)CCC(=O)N(CCN)CCN)C(=O)Nc2ccc3c(c2)B(O)OC3(C)C)cc1 [Compound 78, (S)-2-amino-N5,N5-bis(2-aminoethyl)-N^1-((R)-1-(1-hydroxy-3,3-dimethyl-1,3-dihydrobenzo[c][1,2]oxaborol-6-ylamino)-3-(4-isopropylphenyl)-1-oxopropan-2-yl)pentanediamide] | A (A = MPC8 of less than 2.5 μg/mL.) |
| CC1(C)OB(O)c2ccc(NC(=O)[C@@H](Cc3ccc(C(F)(F)F)cc3)NC(=O)[C@@H](N)CCC(=O)N(CCN)CCN)cc21 [Compound 84, (S)-2-amino-N^5,N^5-bis(2-aminoethyl)-N^1-((R)-1-(1-hydroxy-3,3-dimethyl-1,3-dihydrobenzo[c][1,2]oxaborol-5-ylamino)-1-oxo-3-(4-(trifluoromethyl)phenyl)propan-2-yl)pentanediamide] | B (B = MPC8 of 2.5 μg/ml to less than 10 μg/mL.) |
| CC1(C)OB(O)c2ccc(CNC(=O)[C@@H](Cc3ccc(C(F)(F)F)cc3)NC(=O)[C@@H](N)CCC(=O)N(CCN)CCN)cc21 [Compound 90, (S)-2-amino-N^5,N^5-bis(2-aminoethyl)-N^1-((R)-1-((1-hydroxy-3,3-dimethyl-1,3-dihydrobenzo[c][1,2]oxaborol-5-yl)methylamino)-1-oxo-3-(4-(trifluoromethyl)phenyl)propan-2-yl)pentanediamide] | B (B = MPC8 of 2.5 μg/ml to less than 10 μg/mL.) |
| CC1(C)OB(O)c2ccc(CNC(=O)[C@@H](CCc3ccc(C(F)(F)F)cc3)NC(=O)[C@@H](N)CCC(=O)N(CCN)CCN)cc21 [Compound 93, (S)-2-amino-N^5,N^5-bis(2-aminoethyl)-N^1-((R)-1-((1-hydroxy-3,3-dimethyl-1,3-dihydrobenzo[c][1,2]oxaborol-5-yl)methylamino)-1-oxo-4-(4-(trifluoromethyl)phenyl)butan-2-yl)pentanediamide] | B (B = MPC8 of 2.5 μg/ml to less than 10 μg/mL.) |
| CC1(C)OB(O)c2ccc(NC(=O)[C@@H](CCc3ccc(C(F)(F)F)cc3)NC(=O)[C@@H](N)CCC(=O)N(CCN)CCN)cc21 [Compound 94, (S)-2-amino-N^5,N^5-bis(2-aminoethyl)-N^1-((R)-1-(1-hydroxy-3,3-dimethyl-1,3-dihydrobenzo[c][1,2]oxaborol-5-ylamino)-1-oxo-4-(4-(trifluoromethyl)phenyl)butan-2-yl)pentanediamide] | A (A = MPC8 of less than 2.5 μg/mL.) |
| CC1(C)OB(O)c2ccc(NC(=O)[C@@H](Cc3ccc(C(F)(F)F)cc3)NC(=O)[C@@H](N)CCC(=O)NC(CN)CN)cc21 [Compound 95, (S)-2-amino-N^5-(1,3-diaminopropan-2-yl)-N^1-((R)-1-(1-hydroxy-3,3-dimethyl-1,3-dihydrobenzo[c][1,2]oxaborol-5-ylamino)-1-oxo-3-(4-(trifluoromethyl)phenyl)propan-2-yl)pentanediamide] | B (B = MPC8 of 2.5 μg/ml to less than 10 μg/mL.) |
| CC1(C)OB(O)c2ccc(NC(=O)[C@@H](CCc3ccc(C(F)(F)F)cc3)NC(=O)[C@@H](N)CCC(=O)NC(CN)CN)cc21 [Compound 96, (S)-2-amino-N^5-(1,3-diaminopropan-2-yl)-N^1-((R)-1-(1-hydroxy-3,3-dimethyl-1,3-dihydrobenzo[c][1,2]oxaborol-5-ylamino)-1-oxo-4-(4-(trifluoromethyl)phenyl)butan-2-yl)pentanediamide] | A (A = MPC8 of less than 2.5 μg/mL.) |
| CC1(C)OB(O)c2ccc(NC(=O)[C@@H](COc3ccc(C(F)(F)F)cc3)NC(=O)[C@@H](N)CCC(=O)NC(CN)CN)cc21 [Compound 97, (S)-2-amino-N^5-(1,3-diaminopropan-2-yl)-N^1-((R)-1-(1-hydroxy-3,3-dimethyl-1,3-dihydrobenzo[c][1,2]oxaborol-5-ylamino)-1-oxo-3-(4-(trifluoromethyl)phenoxy)propan-2-yl)pentanediamide] | B (B = MPC8 of 2.5 μg/ml to less than 10 μg/mL.) |
| CC1(C)OB(O)c2ccc(NC(=O)[C@@H](CSc3ccc(C(F)(F)F)cc3)NC(=O)[C@@H](N)CCC(=O)NC(CN)CN)cc21 [Compound 98, (S)-2-amino-N^5-(1,3-diaminopropan-2-yl)-N^1-((S)-1-(1-hydroxy-3,3-dimethyl-1,3-dihydrobenzo[c][1,2]oxaborol-5-ylamino)-1-oxo-3-(4-(trifluoromethyl)phenylthio)propan-2-yl)pentanediamide] | B (B = MPC8 of 2.5 μg/ml to less than 10 μg/mL.) |
| CC1(C)OB(O)c2c(NC(=O)[C@@H](Cc3ccc(C(F)(F)F)cc3)NC(=O)[C@@H](N)CCC(=O)N(CCN)CCN)cccc21 [Compound 101, (S)-2-amino-N^5,N^5-bis(2-aminoethyl)-N^1-((R)-1-(1-hydroxy-3,3-dimethyl-1,3-dihydrobenzo[c][1,2]oxaborol-7-ylamino)-1-oxo-3-(4-(trifluoromethyl)phenyl)propan-2-yl)pentanediamide] | B (B = MPC8 of 2.5 μg/ml to less than 10 μg/mL.) |
| CC1(C)OB(O)c2c(NC(=O)[C@@H](CCc3ccc(C(F)(F)F)cc3)NC(=O)[C@@H](N)CCC(=O)N(CCN)CCN)cccc21 [Compound 102, (S)-2-amino-N^5,N^5-bis(2-aminoethyl)-N^1-((R)-1-(1-hydroxy-3,3-dimethyl-1,3-dihydrobenzo[c][1,2]oxaborol-7-ylamino)-1-oxo-4-(4-(trifluoromethyl)phenyl)butan-2-yl)pentanediamide] | B (B = MPC8 of 2.5 μg/ml to less than 10 μg/mL.) |
